According to patent EP3995135B1, “PROLONGED RELEASE DOSAGE FORM OF […]-(+)- TARTARIC ACID SALT” (Grünenthal GmbH, priority 2020, dated 2022):
Counter-ions that a name gives are not always drawn.

Experiments:
[1] = Intrinsic dissolution (dissolution rate) of compressed salt samples in a Wood apparatus; assay type: physicochemical; details: 37°C, 900 ml, 50 U/min
Description: 100 mg Tapentadol, entweder in Form des Hydrochloridsalzes oder des Salzes mit L-(+)-Weinsäure wurden mit einer Presskraft von 200 kg (gravitativ) bei einer Oberfläche von 0,5 cm^2 1 Minute verpresst. Die so erhaltenen verpressten Proben wurden in einem Wood-Apparat bei 37°C in 900 ml Auflösungsmedium bei verschiedenen pH-Werten und einer Paddeldrehgeschwindigkeit von 50 U/min auf ihre Auflösungsrate untersucht.

[2] = Thermodynamic solubility (saturation solubility, HPLC quantification as free base); assay type: physicochemical; details: for Thermodynamische Löslichkeit, Assay ausgedrückt als Base: 24 h at 25°C; for pH Ende: pH of the solution at the end (24 h, 25°C); for pH Start: pH of the solution at the start
Description: Die thermodynamische Löslichkeit von Tapentadolhydrochlorid und des Salzes von Tapentadol mit L-(+)-Weinsäure wurde als Sättigungslöslichkeit in verschiedenen Medien bei verschiedenen pH-Werten bestimmt. Die Lösungen wurden 24 Stunden bei 25°C gerührt und die pH-Werte der Lösungen zu Beginn und am Ende der Experimente wurden gemessen. Die gelöste Menge an Tapentadol wurde durch HPLC quantifiziert (freie Base von Tapentadol). Die experimentellen Ergebnisse sind in der Tabelle unten zusammengestellt: […]

Row | SMILES | intrinsische Auflösung (Auflösungsrate) ([1]; pH 1,0, 0 min) [%] | intrinsische Auflösung (Auflösungsrate) ([1]; pH 1,0, 1 min) [%] | intrinsische Auflösung (Auflösungsrate) ([1]; pH 1,0, 3 min) [%] | intrinsische Auflösung (Auflösungsrate) ([1]; pH 1,0, 5 min) [%] | intrinsische Auflösung (Auflösungsrate) ([1]; pH 4,5, 0 min) [%] | intrinsische Auflösung (Auflösungsrate) ([1]; pH 4,5, 1 min) [%] | intrinsische Auflösung (Auflösungsrate) ([1]; pH 4,5, 3 min) [%] | intrinsische Auflösung (Auflösungsrate) ([1]; pH 4,5, 5 min) [%] | intrinsische Auflösung (Auflösungsrate) ([1]; pH 6,8, 0 min) [%] | intrinsische Auflösung (Auflösungsrate) ([1]; pH 6,8, 1 min) [%] | intrinsische Auflösung (Auflösungsrate) ([1]; pH 6,8, 3 min) [%] | intrinsische Auflösung (Auflösungsrate) ([1]; pH 6,8, 5 min) [%] | intrinsische Auflösung (Auflösungsrate) ([1]; pH 7,4, 0 min) [%] | intrinsische Auflösung (Auflösungsrate) ([1]; pH 7,4, 1 min) [%] | intrinsische Auflösung (Auflösungsrate) ([1]; pH 7,4, 3 min) [%] | intrinsische Auflösung (Auflösungsrate) ([1]; pH 7,4, 5 min) [%] | Thermodynamische Löslichkeit, Assay ausgedrückt als Base ([2]; medium 0,1 M HCl) | Thermodynamische Löslichkeit, Assay ausgedrückt als Base ([2]; medium Acetat pH 4,5) | Thermodynamische Löslichkeit, Assay ausgedrückt als Base ([2]; medium SIF sp pH 6,8) | Thermodynamische Löslichkeit, Assay ausgedrückt als Base ([2]; medium Wasser) | also measured
1 | CC[C@@H](c1cccc(O)c1)[C@@H](C)CN(C)C [Salz von Tapentadol mit L-(+)-Weinsäure, (-)-(1R,2R)-3-(3-Dimethylamino-1-ethyl-2-methylpropyl)phenol] | 0 | 19 | 51 | 77 | 0 | 20 | 51 | 77 | 0 | 19 | 44 | 67 | 0 | 18 | 44 | 65 | 26,7 g/100 ml | 26,6 g/100 ml | 12,6 g/100 ml | 26,4 g/100 ml | Thermodynamische Löslichkeit, Assay ausgedrückt als Base ([2]; medium Phosphat pH 7,4): 12,9 g/100 ml; pH Ende ([2]; medium 0,1 M HCl): 3,39; pH Ende ([2]; medium Acetat pH 4,5): 3,53; pH Ende ([2]; medium Phosphat pH 7,4): 3,56; pH Ende ([2]; medium SIF sp pH 6,8): 3,55; pH Ende ([2]; medium Wasser): 3,38; pH Start ([2]; medium 0,1 M HCl): 1,15; pH Start ([2]; medium Acetat pH 4,5): 4,51; pH Start ([2]; medium Phosphat pH 7,4): 7,53; pH Start ([2]; medium SIF sp pH 6,8): 6,83; pH Start ([2]; medium Wasser): 6,19
2 | CC[C@@H](c1cccc(O)c1)[C@@H](C)CN(C)C [Tapentadolhydrochlorid, (-)-(1R,2R)-3-(3-Dimethylamino-1-ethyl-2-methylpropyl)phenol, reference compound] | 0 | 52 | 95 | 99 | 0 | 60 | 91 | 95 | 0 | 38 | 79 | 92 | 0 | 27 | 65 | 80 | 31,2 g/100 ml | 32,7 g/100 ml | 32,4 g/100 ml | 33,0 g/100 ml | Thermodynamische Löslichkeit, Assay ausgedrückt als Base ([2]; medium Citrat pH 7.4): 31,9 g/100 ml; pH Ende ([2]; medium 0,1 M HCl): 0,83; pH Ende ([2]; medium Acetat pH 4,5): 4,29; pH Ende ([2]; medium Citrat pH 7.4): 6,33; pH Ende ([2]; medium SIF sp pH 6,8): 6,23; pH Ende ([2]; medium Wasser): 4,63; pH Start ([2]; medium 0,1 M HCl): 1,11; pH Start ([2]; medium Acetat pH 4,5): 4,54; pH Start ([2]; medium Citrat pH 7.4): 7,39; pH Start ([2]; medium SIF sp pH 6,8): 6,82
